Laboratory results as given in US9234000B2, “Benzylamine derivatives as inhibitors of plasma kallikrein” (KalVista Pharmaceuticals Limited, priority 2011, dated 2016).
pIC50: −log10 of the molar value. Converted amounts (≈) assume the structure as drawn. Where two headings read alike, the source gives them in different places.

Legend:
Factor XIIa = Factor XIIa (Homo sapiens (Human), UniProt P00748); experiment: Determination of enzyme selectivity: Factor XIIa; type: biochemical; conditions: fluorogenic substrate at Km concentration
Method: Determination of Enzyme Selectivity
Human serine protease enzymes plasmin, thrombin, trypsin, Factor Xa and Factor XIIa were assayed for enzymatic activity using an appropriate fluorogenic substrate. Protease activity was measured by monitoring the accumulation of liberated fluorescence from the substrate over 5 minutes. The linear rate of fluorescence increase per minute was expressed as percentage (%) activity. The Km for the cleavage of each substrate was determined by standard transformation of the Michaelis-Menten equation.

Human plasma kallikrein = Human plasma kallikrein (Homo sapiens (Human), UniProt P03952); experiment: Determination of the IC50 for plasma kallikrein; type: biochemical; conditions: 37° C., read-out: IC50 (human PKal)
Method in brief: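 Residual activity (initial rate, absorbance at 410 nm) gave the IC50. Reactions at 37° C combined human plasma kallikrein, substrate H-DPro-Phe-Arg-AFC and a range of inhibitor concentrations.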

Human KLK1 = Human KLK1 (Homo sapiens (Human), UniProt P06870); experiment: Determination of the IC50 for KLK1; type: biochemical; conditions: Human KLK1, 37° C., substrate H-DVal-Leu-Arg-AFC
Method in brief: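 Human KLK1 incubated at 37 °C with fluorogenic substrate H-DVal-Leu-Arg-AFC and a range of test compound concentrations. Residual activity was taken as initial reaction rate from absorbance change at 410 nm, and the IC50 derived from it.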

[1] = Determination of thermodynamic solubility in phosphate buffer; type: physicochemical; conditions: pH 7.4, aqueous buffer, thermodynamic from solid, ammonium phosphate buffer pH7.4, 290 mOsm, 37° C., nominal 1 mg/mL, read-out: Solubility in PO4 buffer
Method: Determination of Thermodynamic Solubility in Phosphate Buffer
The thermodynamic solubility of compound was determined in Ammonium Phosphate Buffer (pH7.4, 290 mOsm). Compounds were made up at a nominal concentration of 1 mg/mL, vortexed then placed on a shaker for 1 h, 37° C. at approximately 950 rpm. Following incubation samples were transferred to eppendorf tubes and centrifuged at 15,000 g (r.c.f.) for 10 minutes at 37° C. The concentration of compound in the supernatant was determined by LC-MS/MS analysis using a calibration line prepared from a DMSO stock.

physchem = conditions: for solubility: pH 7, aqueous buffer, kinetic from dmso stock
Method: Determination of the Kinetic Solubility in Phosphate Buffer
After shaking for approximately 30 seconds the reduction in light transmission of these samples, at 650 nm, was measured (Molecular Devices Spectromax UV/visible spectrophotometer). A second measurement was taken at approximately 30 seconds later.

[2] = fluorogenic substrate H-DPro-Phe-Arg-AFC

Sequence of Human KLK1 (P06870 25-262): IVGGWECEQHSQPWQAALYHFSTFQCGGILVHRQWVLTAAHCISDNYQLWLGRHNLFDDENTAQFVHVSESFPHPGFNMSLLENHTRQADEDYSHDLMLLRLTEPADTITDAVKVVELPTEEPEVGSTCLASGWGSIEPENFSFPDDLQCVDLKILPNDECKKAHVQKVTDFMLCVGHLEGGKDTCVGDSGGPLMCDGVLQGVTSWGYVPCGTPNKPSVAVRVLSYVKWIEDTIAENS
Sequence of Human plasma kallikrein (P03952 391-638): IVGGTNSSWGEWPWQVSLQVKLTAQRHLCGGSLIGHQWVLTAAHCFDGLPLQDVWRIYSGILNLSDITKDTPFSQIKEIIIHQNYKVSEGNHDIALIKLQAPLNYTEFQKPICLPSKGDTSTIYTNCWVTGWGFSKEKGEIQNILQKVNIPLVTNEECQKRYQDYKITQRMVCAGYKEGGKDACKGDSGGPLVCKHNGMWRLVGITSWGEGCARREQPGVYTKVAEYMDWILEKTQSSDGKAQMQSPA
Sequence of Human plasma kallikrein (P03952 20-390 partner): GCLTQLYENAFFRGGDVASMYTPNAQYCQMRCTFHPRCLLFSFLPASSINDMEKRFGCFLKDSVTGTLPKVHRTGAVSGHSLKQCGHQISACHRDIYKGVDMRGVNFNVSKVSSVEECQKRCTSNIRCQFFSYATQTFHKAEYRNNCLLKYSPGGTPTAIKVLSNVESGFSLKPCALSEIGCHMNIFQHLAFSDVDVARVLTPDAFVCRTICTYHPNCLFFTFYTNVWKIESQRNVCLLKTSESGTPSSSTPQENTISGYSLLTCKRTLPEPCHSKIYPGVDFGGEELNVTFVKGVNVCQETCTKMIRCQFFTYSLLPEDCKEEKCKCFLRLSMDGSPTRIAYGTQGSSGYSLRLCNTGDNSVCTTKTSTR
Sequence of Factor XIIa (P00748 373-615): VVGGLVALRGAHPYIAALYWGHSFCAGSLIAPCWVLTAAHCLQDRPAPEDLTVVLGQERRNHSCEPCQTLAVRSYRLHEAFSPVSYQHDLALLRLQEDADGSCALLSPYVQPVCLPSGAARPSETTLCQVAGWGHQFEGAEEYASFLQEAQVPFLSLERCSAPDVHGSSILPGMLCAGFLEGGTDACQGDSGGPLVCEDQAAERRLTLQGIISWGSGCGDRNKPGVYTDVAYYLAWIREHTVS

With `CCOc1ccc(C[C@@H](NC(=O)c2sccc2N)C(=O)N[C@@H](Cc2cscn2)C(=O)NCc2ccc(CN)cc2)cc1` [Example 187, 3-Amino-thiophene-2-carboxylic acid [(R)-1-[(S)-1-(4-aminomethyl-benzylcarbamoyl)-2-thiazol-4-yl-ethylcarbamoyl]-2-(4-ethoxy-phenyl)-ethyl]-amide] the pIC50 (Factor XIIa) was < 5.00, the pIC50 (Human plasma kallikrein; substrate H-DPro-Phe-Arg-AFC) was 8.15 and the pIC50 (Human KLK1; Table 13) was < 5.00.
For `CCOc1ccc(C[C@@H](NC(=O)c2ccccc2)C(=O)N[C@@H](Cc2ccccc2)C(=O)NCc2ccc(CN)c(C)c2)cc1` [Example 182, N-[(R)-1-[(S)-1-(4-Aminomethyl-3-methyl-benzylcarbamoyl)-2-phenyl-ethylcarbamoyl]-2-(4-ethoxy-phenyl)-ethyl]-benzamide], the pIC50 (Factor XIIa) was < 5.00, the pIC50 (Human plasma kallikrein; substrate H-DPro-Phe-Arg-AFC) was 7.82 and the pIC50 (Human KLK1; Table 13) was < 5.00.
In the case of `CCOc1ccc(C[C@@H](NC(=O)c2sccc2N)C(=O)N[C@@H](Cc2cscn2)C(=O)NCc2ccc(CN)cc2)cc1` [Example 183, 3-Amino-thiophene-2-carboxylic acid [(R)-1-[(S)-1-(4-aminomethyl-benzylcarbamoyl)-2-thiazol-4-yl-ethylcarbamoyl]-2-(4-ethoxy-phenyl)-ethyl]-amide], the pIC50 (Factor XIIa) was < 5.00, the pIC50 (Human plasma kallikrein; substrate H-DPro-Phe-Arg-AFC) was 7.80 and the pIC50 (Human KLK1; Table 13) was < 5.00.
`CCOc1ccc(C[C@@H](NC(=O)c2ccc(Cl)cc2)C(=O)N[C@@H](Cc2ccccc2)C(=O)NCc2ccc(CN)cc2)cc1` [Example 55, N-[(R)-1-[(S)-1-(4-Aminomethyl-benzylcarbamoyl)-2-phenyl-ethylcarbamoyl]-2-(4-ethoxy-phenyl)-ethyl]-4-chloro-benzamide] gave a solubility at 1 h [1] of 1.5 µg/mL (≈ 2.45 µM), a pIC50 (Human plasma kallikrein; [2]) of 7.51 and a solubility (physchem) of 36 µM (≈ 22.1 µg/mL).
For `CCOc1ccc(C[C@@H](NC(=O)c2ccc(C(F)(F)F)cc2)C(=O)N[C@@H](Cc2ccccc2)C(=O)NCc2ccc(CN)cc2)cc1` [Example 56, N-[(R)-1-[(S)-1-(4-Aminomethyl-benzylcarbamoyl)-2-phenyl-ethylcarbamoyl]-2-(4-ethoxy-phenyl)-ethyl]-4-trifluoromethyl-benzamide], the solubility at 1 h [1] was 0.9 µg/mL (≈ 1.39 µM), the pIC50 (Human plasma kallikrein; [2]) was 6.30 and the solubility (physchem) was 36 µM (≈ 23.3 µg/mL).
With `NCc1ccc(CNC(=O)[C@H](Cc2ccccc2)NC(=O)C(Cc2ccc(OCC(F)(F)F)cc2)NC(=O)c2ccccc2)cc1` (stereo partly drawn) [Example 201, N-{(R,S)-1-[(S)-1-(4-Aminomethyl-benzylcarbamoyl)-2-phenyl-ethylcarbamoyl]-2-[4-(2,2,2-trifluoro-ethoxy)-phenyl]-ethyl}-benzamide] the pIC50 (Factor XIIa) was < 5.00, the pIC50 (Human plasma kallikrein; substrate H-DPro-Phe-Arg-AFC) was 7.92 and the pIC50 (Human KLK1; Table 13) was < 5.00.
In the case of `CCOc1ccc(C[C@@H](NC(=O)c2ccccc2)C(=O)N[C@H](C(=O)NCc2ccc(CN)cc2)[C@H](O)c2ccccc2)cc1` [Example 197, N-[(R)-1-[(1S,2R)-1-(4-Aminomethyl-benzylcarbamoyl)-2-hydroxy-2-phenyl-ethylcarbamoyl]-2-(4-ethoxy-phenyl)-ethyl]-benzamide], the pIC50 (Factor XIIa) was < 5.00, the pIC50 (Human plasma kallikrein; substrate H-DPro-Phe-Arg-AFC) was 7.92 and the pIC50 (Human KLK1; Table 13) was < 5.00.
In the case of `CCOc1ccc(C[C@@H](NC(=O)c2ccccc2C)C(=O)N[C@@H](Cc2cccnc2)C(=O)NCc2ccc(CN)cc2)cc1` [Example 190, N-[(R)-1-[(S)-1-(4-Aminomethyl-benzylcarbamoyl)-2-pyridin-3-yl-ethylcarbamoyl]-2-(4-ethoxy-phenyl)-ethyl]-2-methyl-benzamide], the pIC50 (Factor XIIa) was < 5.00, the pIC50 (Human plasma kallikrein; substrate H-DPro-Phe-Arg-AFC) was 7.55 and the pIC50 (Human KLK1; Table 13) was < 5.00.
`CCOc1ccc(C[C@@H](NC(=O)c2ccc(F)c(F)c2)C(=O)N[C@@H](Cc2ccccc2)C(=O)NCc2ccc(CN)cc2)cc1` [Example 59, N-[(R)-1-[(S)-1-(4-Aminomethyl-benzylcarbamoyl)-2-phenyl-ethylcarbamoyl]-2-(4-ethoxy-phenyl)-ethyl]-3,4-difluoro-benzamide] showed a solubility at 1 h [1] of 7.7 µg/mL (≈ 12.5 µM), a pIC50 (Human plasma kallikrein; [2]) of 7.11 and a solubility (physchem) of 36 µM (≈ 22.1 µg/mL).
In the case of `CCOc1ccc(C[C@@H](NC(=O)c2sccc2N)C(=O)N[C@@H](Cc2csc3ccccc23)C(=O)NCc2ccc(CN)cc2)cc1` [Example 194, 3-Amino-thiophene-2-carboxylic acid [(R)-1-[(S)-1-(4-aminomethyl-benzylcarbamoyl)-2-benzo[b]thiophen-3-yl-ethylcarbamoyl]-2-(4-ethoxy-phenyl)-ethyl]-amide], the pIC50 (Factor XIIa) was < 5.00, the pIC50 (Human plasma kallikrein; substrate H-DPro-Phe-Arg-AFC) was 7.89 and the pIC50 (Human KLK1; Table 13) was 5.15.
Work on `CCOc1ccc(C[C@@H](NC(=O)c2ccc(Cl)cc2Cl)C(=O)N[C@@H](Cc2ccccc2)C(=O)NCc2ccc(CN)cc2)cc1` [Example 58, N-[(R)-1-[(S)-1-(4-Aminomethyl-benzylcarbamoyl)-2-phenyl-ethylcarbamoyl]-2-(4-ethoxy-phenyl)-ethyl]-2,4-dichloro-benzamide] yielded a solubility at 1 h [1] of 4.1 µg/mL (≈ 6.33 µM), a pIC50 (Human plasma kallikrein; [2]) of 6.77 and a solubility (physchem) of 36 µM (≈ 23.3 µg/mL).
In the case of `CCOc1ccc(C[C@@H](NC(=O)c2ccccc2)C(=O)N(C)[C@@H](Cc2ccccc2)C(=O)NCc2ccc(CN)cc2)cc1` [Example 38, N-[(R)-1-{[(S)-1-(4-Aminomethyl-benzylcarbamoyl)-2-phenyl-ethyl]-methyl-carbamoyl}-2-(4-ethoxy-phenyl)-ethyl]-benzamide], the solubility at 1 h [1] was 14.6 µg/mL (≈ 24.5 µM), the pIC50 (Human plasma kallikrein; [2]) was 7.33 and the solubility in PO4 buffer (physchem; pH 7) was > 235 µM. The pIC50 (Human KLK1; Table 12) was < 5.00.
With `CCOc1ccc(C[C@@H](NC(=O)c2ccccc2)C(=O)N[C@@H](Cc2cscn2)C(=O)NCc2ccc(CN)cc2)cc1` [Example 152, N-[(R)-1-[(S)-1-(4-Aminomethyl-benzylcarbamoyl)-2-thiazol-4-yl-ethylcarbamoyl]-2-(4-ethoxy-phenyl)-ethyl]-benzamide] the solubility at 1 h [1] was 122 µg/mL (≈ 209 µM), the pIC50 (Human plasma kallikrein; substrate H-DPro-Phe-Arg-AFC) was 7.64 and the pIC50 (Human KLK1; Table 13) was < 5.00.
With `CCOc1ccc(C[C@@H](NC(=O)c2sccc2N)C(=O)N[C@@H](Cc2ccccc2)C(=O)NCc2ccc(CN)cc2)cc1` [Example 125, 3-Amino-thiophene-2-carboxylic acid [(R)-1-[(S)-1-(4-aminomethyl-benzylcarbamoyl)-2-phenyl-ethylcarbamoyl]-2-(4-ethoxy-phenyl)-ethyl]-amide] the solubility at 1 h [1] was 43.6 µg/mL (≈ 72.7 µM), the pIC50 (Human plasma kallikrein; substrate H-DPro-Phe-Arg-AFC) was 8.00 and the pIC50 (Human KLK1; Table 13) was 5.15.
With `CCOc1ccc(C[C@@H](NC(=O)c2sccc2Cl)C(=O)N[C@@H](Cc2cccnc2)C(=O)NCc2ccc(CN)cc2)cc1` [Example 175, 3-Chloro-thiophene-2-carboxylic acid [(R)-1-[(S)-1-(4-aminomethyl-benzylcarbamoyl)-2-pyridin-3-yl-ethylcarbamoyl]-2-(4-ethoxy-phenyl)-ethyl]-amide] the solubility at 1 h [1] was 23.4 µg/mL (≈ 37.7 µM), the pIC50 (Human plasma kallikrein; substrate H-DPro-Phe-Arg-AFC) was 8.52 and the pIC50 (Human KLK1; Table 13) was < 5.00.
In the case of `CCOc1ccc(C[C@@H](NC(=O)c2ccccn2)C(=O)N[C@@H](Cc2ccccc2)C(=O)NCc2ccc(CN)cc2)cc1` [Example 81, Pyridine-2-carboxylic acid [(R)-1-[(S)-1-(4-aminomethyl-benzylcarbamoyl)-2-phenyl-ethylcarbamoyl]-2-(4-ethoxy-phenyl)-ethyl]-amide], the solubility at 1 h [1] was 1.3 µg/mL (≈ 2.24 µM), the pIC50 (Human plasma kallikrein; substrate H-DPro-Phe-Arg-AFC) was 7.40 and the pIC50 (Human KLK1; Table 13) was < 5.00.
For `CCOc1ccc(C[C@@H](NC(=O)c2cccc3ccccc23)C(=O)N[C@@H](Cc2ccccc2)C(=O)NCc2ccc(CN)cc2)cc1` [Example 54, Naphthalene-1-carboxylic acid [(R)-1-[(S)-1-(4-aminomethyl-benzylcarbamoyl)-2-phenyl-ethylcarbamoyl]-2-(4-ethoxy-phenyl)-ethyl]-amide], the solubility at 1 h [1] was 0.8 µg/mL (≈ 1.27 µM), the pIC50 (Human plasma kallikrein; [2]) was 7.08 and the solubility (physchem) was 12 µM (≈ 7.55 µg/mL).
In the case of `CCOc1ccc(C[C@@H](NC(=O)c2sccc2C)C(=O)N[C@@H](Cc2cccnc2)C(=O)NCc2ccc(CN)cc2)cc1` [Example 181, 3-Methyl-thiophene-2-carboxylic acid [(R)-1-[(S)-1-(4-aminomethyl-benzylcarbamoyl)-2-pyridin-3-yl-ethylcarbamoyl]-2-(4-ethoxy-phenyl)-ethyl]-amide], the solubility at 1 h [1] was 61.6 µg/mL (≈ 103 µM), the pIC50 (Human plasma kallikrein; substrate H-DPro-Phe-Arg-AFC) was 8.00 and the pIC50 (Human KLK1; Table 13) was < 5.00.
Work on `CCOc1ccc(C[C@@H](NC(=O)c2sccc2NC(C)=O)C(=O)N[C@@H](Cc2ccccc2)C(=O)NCc2ccc(CN)cc2)cc1` [Example 179, 3-Acetylamino-thiophene-2-carboxylic acid-[(R)-1-[(S)-1-(4-aminomethyl-benzylcarbamoyl)-2-phenyl-ethylcarbamoyl]-2-(4-ethoxy-phenyl)-ethyl]-amide] yielded a solubility at 1 h [1] of 17.7 µg/mL (≈ 27.6 µM), a pIC50 (Human plasma kallikrein; substrate H-DPro-Phe-Arg-AFC) of 7.66 and a pIC50 (Human KLK1; Table 13) of 5.14.
For `CCOc1ccc(C[C@@H](NC(=O)c2ccccc2)C(=O)N[C@@H](Cc2ccc(F)cc2)C(=O)NCc2ccc(CN)cc2)cc1` [Example 143, N-[(R)-1-[(S)-1-(4-Aminomethyl-benzylcarbamoyl)-2-(4-fluoro-phenyl)-ethylcarbamoyl]-2-(4-ethoxy-phenyl)-ethyl]-benzamide], the solubility at 1 h [1] was 2.86 µg/mL (≈ 4.79 µM), the pIC50 (Human plasma kallikrein; substrate H-DPro-Phe-Arg-AFC) was 7.08 and the pIC50 (Human KLK1; Table 13) was < 5.00.
